According to ChEMBL document CHEMBL3407338, “Synthesis and structure-activity relationship of novel 1,4-diazabicyclo[2.2.2]octane derivatives as potent antimicrobial agents” (Eur J Med Chem, 2015):

Tests used:
[1] = tested on: Bacillus subtilis; assay: Antimicrobial activity against Bacillus subtilis ATCC 6633 at 0.1 ug/ml after 24 hrs by agar diffusion method; assay type: functional; conditions: ATCC 6633, 24 h, read-out: DIZ
[2] = tested on: Staphylococcus aureus; assay: Antimicrobial activity against Staphylococcus aureus ATCC 25923 at 0.1 ug/ml after 24 hrs by agar diffusion method; assay type: functional; conditions: ATCC 25923, 24 h, read-out: DIZ
[3] = tested on: Pseudomonas aeruginosa; assay: Antimicrobial activity against Pseudomonas aeruginosa ATCC 9027 at 0.1 ug/ml after 24 hrs by agar diffusion method; assay type: functional; conditions: ATCC 9027, 24 h, read-out: DIZ
[4] = tested on: Salmonella enterica; assay: Antimicrobial activity against Salmonella enterica ATCC 14028 at 0.1 ug/ml after 24 hrs by agar diffusion method; assay type: functional; conditions: ATCC 14028, 24 h, read-out: DIZ
[5] = tested on: Escherichia coli; assay: Antimicrobial activity against Escherichia coli ATCC 25922 at 0.1 ug/ml after 24 hrs by agar diffusion method; assay type: functional; conditions: ATCC 25922, 24 h, read-out: DIZ
[6] = tested on: Candida albicans; assay: Antimicrobial activity against Candida albicans ATCC 32354 at 0.1 ug/ml after 24 hrs by agar diffusion method; assay type: functional; conditions: ATCC 32354, 24 h, read-out: DIZ
[7] = tested on: Bacillus subtilis; assay: Antimicrobial activity against Bacillus subtilis ATCC 6633 at 1 ug/ml after 24 hrs by agar diffusion method; assay type: functional; conditions: ATCC 6633, 24 h, read-out: DIZ
[8] = tested on: Staphylococcus aureus; assay: Antimicrobial activity against Staphylococcus aureus ATCC 25923 at 1 ug/ml after 24 hrs by agar diffusion method; assay type: functional; conditions: ATCC 25923, 24 h, read-out: DIZ
[9] = tested on: Pseudomonas aeruginosa; assay: Antimicrobial activity against Pseudomonas aeruginosa ATCC 9027 at 1 ug/ml after 24 hrs by agar diffusion method; assay type: functional; conditions: ATCC 9027, 24 h, read-out: DIZ
[10] = tested on: Salmonella enterica; assay: Antimicrobial activity against Salmonella enterica ATCC 14028 at 1 ug/ml after 24 hrs by agar diffusion method; assay type: functional; conditions: ATCC 14028, 24 h, read-out: DIZ
[11] = tested on: Escherichia coli; assay: Antimicrobial activity against Escherichia coli ATCC 25922 at 1 ug/ml after 24 hrs by agar diffusion method; assay type: functional; conditions: ATCC 25922, 24 h, read-out: DIZ
[12] = tested on: Candida albicans; assay: Antimicrobial activity against Candida albicans ATCC 32354 at 1 ug/ml after 24 hrs by agar diffusion method; assay type: functional; conditions: ATCC 32354, 24 h, read-out: DIZ
[13] = tested on: Bacillus subtilis; assay: Antimicrobial activity against 10^4 CFU/ml Bacillus subtilis ATCC 6633 after 22 hrs by serial microdilution method; assay type: functional; conditions: ATCC 6633, 22 h
[14] = tested on: Bacillus subtilis; assay: Antimicrobial activity against 10^7 CFU/ml Bacillus subtilis ATCC 6633 after 22 hrs by serial microdilution method; assay type: functional; conditions: ATCC 6633, 22 h
[15] = tested on: Pseudomonas aeruginosa; assay: Antimicrobial activity against 10^4 CFU/ml Pseudomonas aeruginosa ATCC 9027 after 22 hrs by serial microdilution method; assay type: functional; conditions: ATCC 9027, 22 h
[16] = tested on: Pseudomonas aeruginosa; assay: Antimicrobial activity against 10^7 CFU/ml Pseudomonas aeruginosa ATCC 9027 after 22 hrs by serial microdilution method; assay type: functional; conditions: ATCC 9027, 22 h
[17] = tested on: Staphylococcus aureus; assay: Antimicrobial activity against 10^4 CFU/ml Staphylococcus aureus ATCC 25923 after 22 hrs by serial microdilution method; assay type: functional; conditions: ATCC 25923, 22 h
[18] = tested on: Staphylococcus aureus; assay: Antimicrobial activity against 10^7 CFU/ml Staphylococcus aureus ATCC 25923 after 22 hrs by serial microdilution method; assay type: functional; conditions: ATCC 25923, 22 h
[19] = tested on: Escherichia coli; assay: Antimicrobial activity against 10^4 CFU/ml Escherichia coli ATCC 25922 after 22 hrs by serial microdilution method; assay type: functional; conditions: ATCC 25922, 22 h
[20] = tested on: Escherichia coli; assay: Antimicrobial activity against 10^7 CFU/ml Escherichia coli ATCC 25922 after 22 hrs by serial microdilution method; assay type: functional; conditions: ATCC 25922, 22 h
[21] = tested on: Salmonella enterica; assay: Antimicrobial activity against 10^4 CFU/ml Salmonella enterica ATCC 14028 after 22 hrs by serial microdilution method; assay type: functional; conditions: ATCC 14028, 22 h
[22] = tested on: Salmonella enterica; assay: Antimicrobial activity against 10^7 CFU/ml Salmonella enterica ATCC 14028 after 22 hrs by serial microdilution method; assay type: functional; conditions: ATCC 14028, 22 h
[23] = tested on: Candida albicans; assay: Antimicrobial activity against 10^4 CFU/ml Candida albicans ATCC 32354 after 22 hrs by serial microdilution method; assay type: functional; conditions: ATCC 32354, 22 h
[24] = tested on: Candida albicans; assay: Antimicrobial activity against 10^7 CFU/ml Candida albicans ATCC 32354 after 22 hrs by serial microdilution method; assay type: functional; conditions: ATCC 32354, 22 h
[25] = tested on: Pseudomonas aeruginosa; assay: Antimicrobial activity against 10^4 CFU/ml Pseudomonas aeruginosa ATCC 9027 assessed as reduction in CFU/ml at measured at 10 ug/ml after 2.5 hrs by time-kill kinetic study relative to control; assay type: functional; design: scale not given: the % may be the effect or the level left
[26] = tested on: Pseudomonas aeruginosa; assay: Antimicrobial activity against 10^4 CFU/ml Pseudomonas aeruginosa ATCC 9027 assessed as reduction in CFU/ml at measured at 10 ug/ml after 5 hrs by time-kill kinetic study relative to control; assay type: functional; design: scale not given: the % may be the effect or the level left
[27] = tested on: Pseudomonas aeruginosa; assay: Antimicrobial activity against 10^4 CFU/ml Pseudomonas aeruginosa ATCC 9027 assessed as reduction in CFU/ml at measured at 10 ug/ml after 22 hrs by time-kill kinetic study relative to control; assay type: functional; design: scale not given: the % may be the effect or the level left
[28] = tested on: Staphylococcus aureus; assay: Antimicrobial activity against 10^4 CFU/ml Staphylococcus aureus ATCC 25923 assessed as reduction in CFU/ml at measured at 10 ug/ml after 2.5 hrs by time-kill kinetic study relative to control; assay type: functional; design: scale not given: the % may be the effect or the level left
[29] = tested on: Staphylococcus aureus; assay: Antimicrobial activity against 10^4 CFU/ml Staphylococcus aureus ATCC 25923 assessed as reduction in CFU/ml at measured at 10 ug/ml after 5 hrs by time-kill kinetic study relative to control; assay type: functional; design: scale not given: the % may be the effect or the level left
[30] = tested on: Staphylococcus aureus; assay: Antimicrobial activity against 10^4 CFU/ml Staphylococcus aureus ATCC 25923 assessed as reduction in CFU/ml at measured at 10 ug/ml after 22 hrs by time-kill kinetic study relative to control; assay type: functional; design: scale not given: the % may be the effect or the level left
[31] = tested on: Pseudomonas aeruginosa; assay: Antimicrobial activity against 10^7 CFU/ml Pseudomonas aeruginosa ATCC 9027 assessed as reduction in CFU/ml at measured at 10 ug/ml after 2.5 hrs by time-kill kinetic study relative to control; assay type: functional; design: scale not given: the % may be the effect or the level left
[32] = tested on: Pseudomonas aeruginosa; assay: Antimicrobial activity against 10^7 CFU/ml Pseudomonas aeruginosa ATCC 9027 assessed as reduction in CFU/ml at measured at 10 ug/ml after 5 hrs by time-kill kinetic study relative to control; assay type: functional; design: scale not given: the % may be the effect or the level left
[33] = tested on: Pseudomonas aeruginosa; assay: Antimicrobial activity against 10^7 CFU/ml Pseudomonas aeruginosa ATCC 9027 assessed as reduction in CFU/ml at measured at 10 ug/ml after 22 hrs by time-kill kinetic study relative to control; assay type: functional; design: scale not given: the % may be the effect or the level left
[34] = tested on: Staphylococcus aureus; assay: Antimicrobial activity against 10^7 CFU/ml Staphylococcus aureus ATCC 25923 assessed as reduction in CFU/ml at measured at 10 ug/ml after 2.5 hrs by time-kill kinetic study relative to control; assay type: functional; design: scale not given: the % may be the effect or the level left
[35] = tested on: Staphylococcus aureus; assay: Antimicrobial activity against 10^7 CFU/ml Staphylococcus aureus ATCC 25923 assessed as reduction in CFU/ml at measured at 10 ug/ml after 5 hrs by time-kill kinetic study relative to control; assay type: functional; design: scale not given: the % may be the effect or the level left
[36] = tested on: Staphylococcus aureus; assay: Antimicrobial activity against 10^7 CFU/ml Staphylococcus aureus ATCC 25923 assessed as reduction in CFU/ml at measured at 10 ug/ml after 22 hrs by time-kill kinetic study relative to control; assay type: functional; design: scale not given: the % may be the effect or the level left
[37] = tested on: RPMI-8226; assay: Cytotoxicity against human RPMI8226 cells after 72 hrs by MTT assay; assay type: cell-based; conditions: RPMI-8226, 72 h
[38] = Cytotoxicity against mouse LMTK cells after 72 hrs by MTT assay; assay type: cell-based; conditions: L-M(TK-)
[39] = tested on: HEK-293T; assay: Cytotoxicity against human HEK293T cells after 72 hrs by MTT assay; assay type: cell-based
[40] = tested on: MEF; assay: Cytotoxicity against mouse MEF cells after 72 hrs by MTT assay; assay type: cell-based

## CCCCCCCCCCCCCCCC[N+]12CC[N+](CCCCC[N+]34CC[N+](CCCCCCCCCCCCCCCC)(CC3)CC4)(CC1)CC2
[1]
  zone of inhibition at 0.1 µg/mL: 0 mm
[2]
  zone of inhibition at 0.1 µg/mL: 0 mm
[3]
  zone of inhibition at 0.1 µg/mL: 0 mm
[4]
  zone of inhibition at 0.1 µg/mL: 0 mm
[5]
  zone of inhibition at 0.1 µg/mL: 0 mm
[6]
  zone of inhibition at 0.1 µg/mL: 0 mm

## CCCCCCCCCC[N+]12CC[N+](CCCCC[N+]34CC[N+](CCCCCCCCCC)(CC3)CC4)(CC1)CC2.[Br-].[Br-].[Br-].[Br-]
[7]
  zone of inhibition at 1 µg/mL: 10 mm
[8]
  zone of inhibition at 1 µg/mL: 10 mm
[9]
  zone of inhibition at 1 µg/mL: 6 mm
[10]
  zone of inhibition at 1 µg/mL: 7 mm
[11]
  zone of inhibition at 1 µg/mL: 10 mm
[12]
  zone of inhibition at 1 µg/mL: 10 mm
[13]
  MBC: < 1.6 µg/mL
  MIC: < 1.6 µg/mL
[14]
  MBC: 3.1 µg/mL
  MIC: 3.1 µg/mL
[15]
  MBC: 1.6 µg/mL
  MIC: 1.6 µg/mL
[16]
  MBC: 25 µg/mL
  MIC: 12.5 µg/mL
[17]
  MBC: 12.5 µg/mL
  MIC: 3.1 µg/mL
[18]
  MBC: 6.3 µg/mL
  MIC: 6.3 µg/mL
[19]
  MBC: 6.3 µg/mL
  MIC: 6.3 µg/mL
[20]
  MBC: 12.5 µg/mL
  MIC: 6.3 µg/mL
[21]
  MBC: 25 µg/mL
  MIC: 12.5 µg/mL
[22]
  MBC: 50 µg/mL
  MIC: 12.5 µg/mL
[23]
  MBC: < 1.6 µg/mL
  MIC: < 1.6 µg/mL
[24]
  MBC: < 1.6 µg/mL
  MIC: < 1.6 µg/mL
[25]
  Activity: 62.3%
[26]
  Activity: 99.2%
[27]
  Activity: 25%
[28]
  Activity: 100%
[29]
  Activity: 100%
[30]
  Activity: 100%
[31]
  Activity: 0%
[32]
  Activity: 43%
[33]
  Activity: 0%
[34]
  Activity: 100%
[35]
  Activity: 100%
[36]
  Activity: 100%
[37]
  IC50: 45.2 µg/mL
[38]
  IC50: 56.4 µg/mL
[39]
  IC50: 93.8 µg/mL
[40]
  IC50: 23.4 µg/mL

## CCCCCCCCCCCC[N+]12CC[N+](CCCCC[N+]34CC[N+](CCCCCCCCCCCC)(CC3)CC4)(CC1)CC2.[Br-].[Br-].[Cl-].[Cl-]
[7]
  zone of inhibition at 1 µg/mL: 10 mm
[8]
  zone of inhibition at 1 µg/mL: 10 mm
[9]
  zone of inhibition at 1 µg/mL: 7 mm
[10]
  zone of inhibition at 1 µg/mL: 7 mm
[11]
  zone of inhibition at 1 µg/mL: 9 mm
[12]
  zone of inhibition at 1 µg/mL: 10 mm
[13]
  MBC: < 1.6 µg/mL
  MIC: < 1.6 µg/mL
[14]
  MBC: 3.1 µg/mL
  MIC: 3.1 µg/mL
[15]
  MBC: < 1.6 µg/mL
  MIC: < 1.6 µg/mL
[16]
  MBC: 6.3 µg/mL
  MIC: 6.3 µg/mL
[17]
  MBC: 6.3 µg/mL
  MIC: 3.1 µg/mL
[18]
  MBC: 12.5 µg/mL
  MIC: 6.3 µg/mL
[19]
  MBC: 3.1 µg/mL
  MIC: 3.1 µg/mL
[20]
  MBC: 6.3 µg/mL
  MIC: 6.3 µg/mL
[21]
  MBC: 25 µg/mL
  MIC: 25 µg/mL
[22]
  MBC: 50 µg/mL
  MIC: 25 µg/mL
[23]
  MBC: 6.3 µg/mL
  MIC: 3.1 µg/mL
[24]
  MBC: 12.5 µg/mL
  MIC: 12.5 µg/mL
[25]
  Activity: 99.9%
[26]
  Activity: 100%
[27]
  Activity: 100%
[28]
  Activity: 100%
[29]
  Activity: 100%
[30]
  Activity: 100%
[31]
  Activity: 100%
[32]
  Activity: 100%
[33]
  Activity: 100%
[34]
  Activity: 100%
[35]
  Activity: 100%
[36]
  Activity: 100%
[37]
  IC50: 11.7 µg/mL
[38]
  IC50: 25.6 µg/mL
[39]
  IC50: 23.4 µg/mL
[40]
  IC50: 12.7 µg/mL
